Active and inactive are the calls of the source. No cut-off for these calls is given here.
Legend:
[1] = tested on: Fibroblast of cardiac tissue; assay: Effect on Ang II-induced in Cul4B neddylation in mouse cardiac fibroblast at 1 uM preincubated for 2 hrs followed by Ang-II stimulation and further incubated for 24 hrs by western blot analysis; type: functional, cell-based; conditions: time 26.0 hrs
[2] = tested on: Fibroblast of cardiac tissue; assay: Inhibition of differentiation of Ang II-induced mouse cardiac fibroblast to myofibroblast assessed as decrease in alpha-SMA expression levels at 1 uM preincubated for 2 hrs followed by Ang-II stimulation and further incubated for 24 hrs by immunofluorescence assay; type: functional, cell-based; conditions: time 26.0 hrs
[3] = Toxicity in 24 hr starved C57BL/6 mouse assessed as pathological change in liver at 2 g/Kg administered via gavage measured after 2 weeks by H and E staining based histopathological analysis; type: tissue-based; conditions: in vivo, po, 2000 mg/kg
[4] = tested on: Fibroblast of cardiac tissue; assay: Effect on Ang II-induced in Cul4A neddylation in mouse cardiac fibroblast at 1 uM preincubated for 2 hrs followed by Ang-II stimulation and further incubated for 24 hrs by western blot analysis; type: functional, cell-based; conditions: time 26.0 hrs
DCN1-like protein 1 [5] = biological target: T1, DCN1-like protein 1 (Homo sapiens, UniProt Q96GG9); assay: Binding affinity to […] DCN1 (unknown origin) assessed as dissociation constant incubated for upto 180 secs by label-free biolayer interferometry assay
Target sequence in this assay (Q96GG9 whole entry): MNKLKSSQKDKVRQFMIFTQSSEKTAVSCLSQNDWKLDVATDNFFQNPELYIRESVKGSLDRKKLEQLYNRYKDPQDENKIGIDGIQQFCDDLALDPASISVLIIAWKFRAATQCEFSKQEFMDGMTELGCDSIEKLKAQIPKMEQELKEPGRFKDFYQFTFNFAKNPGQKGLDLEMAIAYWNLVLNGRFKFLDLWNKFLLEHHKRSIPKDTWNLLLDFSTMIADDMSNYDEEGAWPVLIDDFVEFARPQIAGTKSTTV

Cardiac fibroblast [6] = assay: Inhibition of DCN1 in Ang II-treated Sprague-Dawley rat cardiac fibroblast assessed as decrease in cell migration preincubated for 2 hrs followed by Ang-II stimulation and further incubated for 24 hrs by scratch wound healing assay based microscopy; conditions: Sprague-Dawle, time 26.0 hrs
[7] = tested on: Fibroblast of cardiac tissue; assay: Antifibrotic effect in SD rat cardiac fibroblast assessed as reduction in Ang II-induced activation of Nrf2 signaling pathway preincubated for 2 hrs followed by Ang II-stimulation and further incubated for 24 hrs by western blot analysis (reference value: 43 %); type: functional; conditions: time 26 hrs
[8] = tested on: Fibroblast of cardiac tissue; assay: Reversal of TGF-beta-induced increase in collagen I secretion in mouse cardiac fibroblast at 1 uM preincubated for 2 hrs followed by TGF-beta stimulation and further incubated for 24 hrs by Western blot analysis; type: functional, cell-based; conditions: time 26.0 hrs
DCN1-like protein 1 [9] = biological target: T1, DCN1-like protein 1; assay: Inhibition of GST-tagged DCN1 (unknown origin) using AcUBE2M1-21 incubated for 30 mins by HTRF assay
Target sequence in this assay (Q96GG9 whole entry): as above

[10] = tested on: Fibroblast of cardiac tissue; assay: Effect on Cul2 neddylation in mouse cardiac fibroblast at 1 uM preincubated for 2 hrs by Western blot analysis; type: functional, cell-based
DCN1-like protein 3 = biological target: T2, DCN1-like protein 3 (Homo sapiens, UniProt Q8IWE4); assay: Binding affinity to DCN3 (unknown origin) assessed as inhibitory constant
T2 sequence (Q8IWE4 whole entry): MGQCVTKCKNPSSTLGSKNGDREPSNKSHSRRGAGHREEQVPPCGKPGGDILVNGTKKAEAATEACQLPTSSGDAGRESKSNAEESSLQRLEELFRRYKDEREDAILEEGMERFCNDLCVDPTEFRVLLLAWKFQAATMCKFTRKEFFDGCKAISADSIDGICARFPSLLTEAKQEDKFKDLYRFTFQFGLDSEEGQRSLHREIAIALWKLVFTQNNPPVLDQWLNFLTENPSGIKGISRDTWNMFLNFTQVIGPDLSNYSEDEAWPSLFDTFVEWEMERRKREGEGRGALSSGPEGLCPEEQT

[11] = Toxicity in 24 hr starved C57BL/6 mouse assessed as change in cardiac function at 2 g/Kg administered via gavage measured after 2 weeks by echocardiography; conditions: in vivo, po, 2000 mg/kg
[12] = tested on: Fibroblast of cardiac tissue; assay: Effect on Cul4A neddylation in mouse cardiac fibroblast at 1 uM preincubated for 2 hrs by Western blot analysis; type: functional, cell-based
[13] = tested on: Fibroblast of cardiac tissue; assay: Antifibrotic effect in SD rat cardiac fibroblast transfected with DCN1 siRNA assessed as effect on collagen III expression at 1 uM preincubated for 2 hrs followed by Ang II-stimulation and further incubated for 24 hrs by western blot analysis; type: functional, cell-based; conditions: time 26.0 hrs
[14] = tested on: Fibroblast of cardiac tissue; assay: Reversal of Ang II-induced increase in DCN1 secretion in mouse cardiac fibroblast at 1 uM preincubated for 2 hrs followed by Ang-II stimulation and further incubated for 24 hrs by western blot analysis; type: functional, cell-based; conditions: time 26.0 hrs
[15] = tested on: Fibroblast of cardiac tissue; assay: Effect on Cul1 neddylation in mouse cardiac fibroblast at 1 uM preincubated for 2 hrs by Western blot analysis; type: functional, cell-based
Cardiac fibroblast [16] = assay: Inhibition of DCN1 in Sprague-Dawley rat cardiac fibroblast assessed as suppression in DCN1-UBC12 interaction by measuring reduction in UBC12 level at 10 uM incubated for 5 hrs co-incubated with DCN1 antibody by co-immunoprecipitation pull down assay; type: cell-based
[17] = Toxicity in 24 hr starved C57BL/6 mouse assessed as pathological change in heart at 2 g/Kg administered via gavage measured after 2 weeks by H and E staining based histopathological analysis; type: tissue-based; conditions: in vivo, po, 2000 mg/kg
[18] = tested on: Fibroblast of cardiac tissue; assay: Antifibrotic effect in SD rat cardiac fibroblast assessed as reduction in Ang II-induced collagen I upregulation preincubated for 2 hrs followed by Ang II-stimulation and further incubated for 24 hrs by western blot analysis (reference value: 71 %); type: functional; conditions: time 26 hrs
Cardiac fibroblast [19] = assay: Inhibition of DCN1 in TGF-beta-treated Sprague-Dawley rat cardiac fibroblast assessed as inhibition of cell proliferation at 0.1 to 3 uM preincubated for 2 hrs followed by TGF-beta stimulation and further incubated for 24 hrs by MTT assay; type: cell-based; conditions: dose 0.1-3 µM, time 26.0 hrs
DCN1-like protein 2 = DCN1-like protein 2 (Homo sapiens, UniProt Q6PH85); assay: Binding affinity to DCN2 (unknown origin) assessed as inhibitory constant
Chain of DCN1-like protein 2 (Q6PH85 whole entry): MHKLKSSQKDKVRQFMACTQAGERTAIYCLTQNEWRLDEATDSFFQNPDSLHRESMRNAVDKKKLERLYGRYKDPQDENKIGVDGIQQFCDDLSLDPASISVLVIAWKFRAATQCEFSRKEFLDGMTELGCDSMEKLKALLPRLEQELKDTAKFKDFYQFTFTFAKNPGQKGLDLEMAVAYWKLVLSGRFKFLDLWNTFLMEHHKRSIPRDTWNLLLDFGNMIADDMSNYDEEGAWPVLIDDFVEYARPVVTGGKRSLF

[20] = tested on: Fibroblast of cardiac tissue; assay: Effect on Cul4B neddylation in mouse cardiac fibroblast at 1 uM preincubated for 2 hrs by Western blot analysis; type: functional, cell-based
[21] = tested on: Fibroblast of cardiac tissue; assay: Reversal of Ang II-induced increase in collagen I secretion in mouse cardiac fibroblast at 1 uM preincubated for 2 hrs followed by Ang-II stimulation and further incubated for 24 hrs by western blot analysis; type: functional, cell-based; conditions: time 26.0 hrs
DCN1-like protein 1 [22] = biological target: T1, DCN1-like protein 1; assay: Binding affinity to DCN1 (unknown origin) assessed as inhibitory constant
Target sequence in this assay (Q96GG9 whole entry): as the sequence (Q96GG9 whole entry) above

Homo sapiens = organism: Homo sapiens; assay: Inhibition of NEDD8-UBC12 (unknown origin) interaction in presence of ATP at 100 uM by densitometry; conditions: time 10.0 min
[23] = tested on: Fibroblast of cardiac tissue; assay: Effect on Ang II-induced in Cul1 neddylation in mouse cardiac fibroblast at 1 uM preincubated for 2 hrs followed by Ang-II stimulation and further incubated for 24 hrs by western blot analysis; type: functional, cell-based; conditions: time 26.0 hrs
[24] = tested on: Fibroblast of cardiac tissue; assay: Reversal of Ang II-induced increase in collagen III secretion in mouse cardiac fibroblast at 1 uM preincubated for 2 hrs followed by Ang-II stimulation and further incubated for 24 hrs by western blot analysis; type: functional, cell-based; conditions: time 26.0 hrs
DCN1-like protein 1 [25] = biological target: T1, DCN1-like protein 1
Target sequence in this assay (Q96GG9 whole entry, looked up): as the sequence (Q96GG9 whole entry) above
Description: Binding affinity to DCN1 (unknown origin) assessed as Gibbs free energy change by MM-PBSA method

[26] = Toxicity in 24 hr starved C57BL/6 mouse assessed as animal survival at 2 g/Kg administered via gavage measured upto 2 weeks; conditions: in vivo, po, 2000 mg/kg
[27] = tested on: Fibroblast of cardiac tissue; assay: Effect on Ang II-induced in Cul2 neddylation in mouse cardiac fibroblast at 1 uM preincubated for 2 hrs followed by Ang-II stimulation and further incubated for 24 hrs by western blot analysis; type: functional, cell-based; conditions: time 26.0 hrs
Cardiac fibroblast [28] = assay: Inhibition of DCN1 in Ang II-treated Sprague-Dawley rat cardiac fibroblast assessed as inhibition of cell proliferation preincubated for 2 hrs followed by Ang-II stimulation and further incubated for 24 hrs by MTT assay; type: cell-based; conditions: dose 0.1-3 µM, time 26.0 hrs
[29] = tested on: Fibroblast of cardiac tissue; assay: Antifibrotic effect in SD rat cardiac fibroblast transfected with DCN1 siRNA assessed as effect on collagen I expression at 1 uM preincubated for 2 hrs followed by Ang II-stimulation and further incubated for 24 hrs by western blot analysis; type: functional, cell-based; conditions: time 26.0 hrs

**Q.** What does the source list for `COc1cc(-c2nc(SCc3ccc(Cl)cc3)nc(Sc3nnnn3C)c2C#N)cc(OC)c1OC`?
**A.** Activity [1]: Active; inhibition [2]: Active; Activity [3]: Non-Toxic; Activity [4]: Active; Kd (DCN1-like protein 1 [5]): 26 nM; inhibition (Cardiac fibroblast [6]): Active; inhibition (INH) [7]: 37%; Activity [8]: Active; IC50 (DCN1-like protein 1 [9]): 9.55 nM; Activity [10]: Active; Ki (DCN1-like protein 3): 385 µM; Activity [11]: Non-Toxic; Activity [12]: Active; inhibition [13]: inactive; Activity [14]: Active; Activity [15]: Active; inhibition (Cardiac fibroblast [16]): Active; Activity [17]: Non-Toxic; inhibition (INH) [18]: 33%; inhibition (Cardiac fibroblast [19]): Dose-Dependent Effect; Ki (DCN1-like protein 2): 18.8 µM; Activity [20]: Active; Activity [21]: Active; Ki (DCN1-like protein 1 [22]): 8.26 nM; inhibition (Homo sapiens): inactive; Activity [23]: Active; Activity [24]: Active; deltaG (DCN1-like protein 1 [25]): -36.6 kJ/mol; Activity [26]: Non-Toxic; Activity [27]: Active; inhibition (Cardiac fibroblast [28]): Active; inhibition [29]: inactive
